Patent US12234299B2, “Peptides for inducing bacteriocin synthesis and methods to identify and/or select and/or optimize the same” (SYNGULON S.A., priority 2018, dated 2025)

Experiments:
ScuR = assay: Mobility shift assay (EMSA) of promoter probes with purified ScuR and synthetic peptide; type: binding, Streptococcus salivarius; details: ScuR 4 μM; peptide 2:2 dilutions from 20 μM; FIG. 10B
Experimental: All double-stranded DNA fragments (30 or 40 bp) were obtained from annealing of single-stranded Cy3-labelled (at 5′ end) and unlabeled oligonucleotides. Typically, a gel shift reaction (20 μl) was performed in a binding buffer (20 mM Tris-HCl pH 8.0, 150 mM NaCl, 1 mM EDTA, 1 mM DTT, 10% glycerol, 1 mg ml-1 BSA) and contained 150 ng labelled probe and […] StrepTag proteins. When necessary, […] of ComS peptides (unless otherwise stated) are added. The reaction is incubated at 37° C. for 10 min prior to loading of the samples on a native TBE 5% gel. The gel is next subjected to 80 V for approximately 1 h in TBE buffer. DNA complexes were detected by fluorescence on the Ettan DIGE Imager with bandpass excitation filters (nm): 540/25 (Cy3) or 635/30 (Cy5) and bandpass emission filters: 595/25 (Cy3) or 680/30 (Cy5) (GE Healthcare, Waukesha, WI).
The PCR-amplified scuR-StrepTag and gene sarF-StrepTag were cloned into the pBAD-comR-ST vector (see supplemental information). The ComR-StrepTag, ScuR-StrepTag and SarF-StrepTag recombinant proteins were overproduced in E. coli and purified as previously described (Fontaine et al., 2013) in standard native conditions on Strep-Tactin agarose beads (IBA).

[1] = system: sptA promoter (PsptA), ScuR/SarF system; assay: Luciferase (luxAB) promoter activity of PsptA with exogenous synthetic peptides; type: cell-based, Streptococcus salivarius HSISS4; details: for Maximal activity of PsptA exposed to sBI7 mutant peptides, low concentration: 0.001 μM (1 nM) peptide, FIG. 3C; for Maximal activity of PsptA exposed to sBI7 mutant peptides, high concentration: 1 μM peptide, FIG. 3E
Experimental: (§1) Overnight precultures were diluted at a final OD600 of 0.05. A volume of 300 μl of culture samples was incubated in the wells of a sterile covered white microplate with a transparent bottom (Greiner, Alphen a/d Rijn, The Netherlands) for 75 min at 37° C. and then supplemented with synthetic peptides (1 μM, except if otherwise stated) or DMSO, and xylose where required. Growth (OD600) and luciferase (Lux) activity (expressed in relative light units) was monitored at 10 min intervals during 24 h in a multi-wells plate reader (Hidex Sense, Hidex, Turku, Finland) as previously described (Fontaine et al., 2013).

sptA promoter (PsptA) = assay: PsptA-luxAB activity with xylose-induced intracellularly expressed peptides; type: cell-based, Streptococcus salivarius
Excerpt: (§2) To generate the two DNA libraries encoding randomized sequence of small peptides, we performed overlapping PCRs to graft fragments encompassing the follow features: (1) a 5′ recombination arm (for the ectopic tRNA^ser locus); (2) the xylR gene that codes for the xylose responsive regulator; (3) either Pxyl1 (library I) or Pxyl2 (library II) translationally-fused to a 12 codon long gene, for which the last 7 are randomized; (4) the spec gene; (5) a 3′ recombination arm (for the ectopic tRNA^ser locus). To obtain the randomized DNA stretch, we used a 78 nucleotide long primer degenerated on 21 contiguous positions. Next, we transformed these two libraries in strains containing the sptA promoter translationally-fused to the cat gene (chloramphenicol resistance) in which the associated spec gene was excised by the previously described cre-lox method. The initial background of these strains were either a comR-overexpressing (Pxyl1-comR) or a salivaricin-deprived (Δslv5) strain. We plated transformed cells on solid medium supplemented with xylose (either 0.1 or 1%), chloramphenicol ([…]) and spectinomycin ([…]) and grew overnight. We restreaked single colonies on fresh chloramphenicol and spectinomycin solid medium supplemented or not with xylose.
as §1

[2] = system: sptA promoter (PsptA) fused to cat, ScuR/SarF; assay: Randomized peptide screen (PsptA-cat, chloramphenicol resistance on xylose); type: cell-based, Streptococcus salivarius; details: xylose 0.1 or 1%; PsptA-cat reporter
Excerpt: as §2

Candida species = details: Shekh and Roy (2012); cited from earlier work
[3] = system: fungal microbial organism; details: literature; cited from earlier work
[4] = system: bacteriocin gene promoters (salivaricin promoters); assay: Luciferase (luxAB) activity of bacteriocin gene (salivaricin) promoters; type: cell-based, Streptococcus salivarius HSISS4; details: 1 μM; FIG. 7
Experimental: as §1

[5] = system: pathogenic Gram-positive and Gram-negative bacteria; details: Acuna et al. (2012); cited from earlier work

LAFWDSLG [Leu-Ala-Phe-Trp-Asp-Ser-Leu-Gly]
ScuR binding to PsptA probe (ScuR): more intense
induction of the sptA promoter in vivo ([1]; 1 μM, FIG. 10A): able to induce the sptA promoter in vivo

LAFWDSLGLLL [LAFWDSLG with a triple leucine extension at the C-terminus (precursor peptide)]
ScuR binding to PsptA probe (ScuR): requires extreme concentration
induction of the sptA promoter in vivo ([1]; 1 μM, FIG. 10A): able to induce the sptA promoter in vivo
PsptA induction of the longer peptide relative to the shorter one ([1]; 1 μM, induction magnitude comparable to sBI7, FIG. 10A): much more active at 1 μM concentration than the shorter one

MIAILPFWLILG [BI7, genome-encoded screen peptide]
xylose-driven PsptA activity in comR or sarF deletion backgrounds (sptA promoter (PsptA); 0.1% xylose, FIG. 2D): neither comR nor sarF deletion has a dramatic effect
xylose-driven PsptA activity in scuR deletion background (sptA promoter (PsptA); 0.1% xylose, FIG. 2D): annihilates both xylose induction and basal leaky expression

MIAILRPH [BM1, irrelevant genome-encoded peptide, negative control clone, reference compound]
growth on chloramphenicol with vs without xylose [2]: xylose-independent growth
potentiation of PsptA-luxAB promoter activity by xylose addition (sptA promoter (PsptA); xylose 0.1% or 1% vs mock, FIG. 2B): no effect

WLPPAGLLGRCGRWFRPWLLWLQ SGAQY KWLGNLFGLGPK (WLPPAGLLGRCGRWFRPWLLWLQSGAQYKWLGNLFGLGPK; Enterococcus faecalis peptide)
neutralizing activity against Candida species (Candida species): neutralizing activity against Candida species

botrycidin AJ1316
antifungal activities [3]: antifungal activities

sBI7^G→A: sBI7 variant, C-terminal glycine substituted by alanine (LPFWLILA)
Maximal activity of salivaricin (bacteriocin gene) promoters exposed to mutant peptides [4]: low to high activation disability
Maximal activity of PsptA exposed to sBI7 mutant peptides, low concentration [1]: decreases the PsptA response
Maximal activity of PsptA exposed to sBI7 mutant peptides, high concentration [1]: activate Pcat at a similar range than the WT sBI7 peptide

sBI7^W→A: sBI7 variant, ultra-conserved tryptophan substituted by alanine (LPFALILG)
Maximal activity of salivaricin (bacteriocin gene) promoters exposed to mutant peptides [4]: total inefficacy
Maximal activity of PsptA exposed to sBI7 mutant peptides, low concentration [1]: neither alanine (sBI7^W→A) nor phenylalanine (sBI7^W→F) variants sustains luciferase transcription

sBI7^W→F: sBI7 variant, ultra-conserved tryptophan substituted by phenylalanine (LPFFLILG)
Maximal activity of salivaricin (bacteriocin gene) promoters exposed to mutant peptides [4]: low to high activation disability
Maximal activity of PsptA exposed to sBI7 mutant peptides, low concentration [1]: neither alanine (sBI7^W→A) nor phenylalanine (sBI7^W→F) variants sustains luciferase transcription
Maximal activity of PsptA exposed to sBI7 mutant peptides, high concentration [1]: activate Pcat at a similar range than the WT sBI7 peptide

B1: Ent35-MccV: hybrid bacteriocin: N-terminal glycine, Enterocin CRL35, a linker comprising three glycines, and a C-terminal Microcin V (protein)
chain: GKYYGNGVSCNKKGCSVDWGRAIGIIGNNSAANLATGGAAGWKSGGGASGRDIAMAIGTLSGQFVAGGIGAAAGGVAGGAIYDYASTHKPNPAMSPSGLGGTIKQKPEGIPSEAWNYAAGRLCNWSPNNLSDVCL
modifications: Hybrid bacteriocin Ent35-MccV
notes: hybrid bacteriocin: N-terminal glycine, Enterocin CRL35, a linker comprising three glycines, and a C-terminal Microcin V
antimicrobial activity [5]: displays antimicrobial activity against pathogenic Gram-positive and Gram-negative bacteria
